In US20260297065A1, “AROMATIC SUBSTITUENT-CONTAINING (HETERO) ARYL-IMIDAZOLE COMPOUND, AND PREPARATION METHOD THEREFOR AND USE THEREOF” (OPEN SOURCE THERAPEUTICS, priority 2022, published 2026):

Target: T1, soluble epoxide hydrolase (sEH) (Homo sapiens, UniProt P34913)
T1 sequence (P34913 1-555): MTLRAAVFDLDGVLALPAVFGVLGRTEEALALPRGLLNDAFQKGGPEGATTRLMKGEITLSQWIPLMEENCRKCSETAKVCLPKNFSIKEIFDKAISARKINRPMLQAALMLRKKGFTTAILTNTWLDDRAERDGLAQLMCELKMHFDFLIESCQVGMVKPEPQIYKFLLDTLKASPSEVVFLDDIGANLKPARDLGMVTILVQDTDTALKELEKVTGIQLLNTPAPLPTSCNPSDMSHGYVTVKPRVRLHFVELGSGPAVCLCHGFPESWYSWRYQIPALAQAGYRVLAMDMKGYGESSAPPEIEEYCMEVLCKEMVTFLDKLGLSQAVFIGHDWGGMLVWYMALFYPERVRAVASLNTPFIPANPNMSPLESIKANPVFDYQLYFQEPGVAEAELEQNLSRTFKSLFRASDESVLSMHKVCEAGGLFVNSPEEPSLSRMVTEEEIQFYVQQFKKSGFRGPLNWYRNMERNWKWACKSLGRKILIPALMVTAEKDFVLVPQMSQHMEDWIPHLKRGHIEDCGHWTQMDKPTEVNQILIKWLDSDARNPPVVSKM
Experiment: in vitro biochemical activity test, sEH enzyme inhibition with EET substrate (LC-MS)
Settings: 90 min pre-incubation at room temperature, 60 min reaction
Procedure: This example relates to the relationship between the structure and activity of (hetero)aryl imidazole compounds containing an aromatic substituent. Specifically, the biochemical activity of the (hetero)aryl imidazole compounds containing an aromatic substituent described in Example 1 as sEH enzyme inhibitors was evaluated by in vitro activity test experiments.
The experimental procedures for evaluating in vitro biochemical activity were described below.
The substrate used in the evaluation experiment was epoxyeicosatrienoic acid (EET). The solutions used in the evaluation experiments were Bis/Tris HCl 25 mM pH 7.0, Bis/Tris HCl 25 mM pH 7.0 containing 0.1 mg/mL BSA was used as buffer A, and Bis/Tris HCl 25 mM pH 7.0 containing 36.3 mM ZnSO4 was used as buffer B.
The specific steps of the evaluation experiment were as follows. 79 μL of buffer A was added to each well in a black 96-well plate and then 1 μL solution of the aromatic substituent-containing (hetero)aryl imidazole compound was added. Then, 10 μL sEH (1 μM) buffer A solution was added to the wells. After pre-incubation at room temperature for 90 min, 10 μL EET (10 μM) buffer A solution was added to trigger the reaction. After the mixture was allowed to react […] for 60 min, 15 μL buffer B and 180 μL acetonitrile were added to quench the reaction, followed by high-speed centrifugation and filtration for later use.
LC-MS was used to detect the concentration of EET in the samples. The final IC50 was calculated based on three independent experiments using Graphpad Prism software.

Row | IC50 | SMILES
1 | 0.045 nM | Cc1nc(N)ncc1-c1cc2nc(-c3ccc(S(=O)(=O)N(C)C)cc3)[nH]c2c(Cl)c1F [Compound 35, 4-(6-(2-amino-4-methylpyr-imid-5-yl)-4-chloro-5-fluoro-1H-benzo[d]imidazol-2-yl)-N,N-dimethylbenzenesulfon-amide]
2 | 0.94 nM | Cc1ncc(-c2ccc3[nH]c(-c4ccc(C(F)(F)F)cc4)nc3c2F)cn1 [Compound 14, 7-fluoro-6-(2-methylpyrimid-5-yl)-2-(4-(trifluoromethyl)-phenyl)-1H-benzo[d]imidazole]
3 | 0.074 nM | Cc1ncc(-c2cc3nc(-c4ccc(C(F)(F)F)cc4)[nH]c3c(F)c2F)c(C)n1 [Compound 5]
4 | 0.046 nM | Cc1ncc(-c2cc3nc(-c4ccc(S(=O)(=O)N(C)C)cc4)[nH]c3c(F)c2F)c(Cl)n1 [Compound 28, 4-(6-(4-chloro-2-methylpyr-imid-5-yl)-4,5-difluoro-1H-benzo[d]imidazol-2-yl)-N,N-dimethylbenzenesulfonamide]
5 | 2.21 nM | CS(=O)(=O)c1ccc(-c2nc3cc(-c4cnc(N5CCOCC5)nc4)c(F)cc3[nH]2)cc1 [Compound 20, 4-(5-(5-fluoro-2-(4-(methyl-sulfonyl)phenyl)-1H-benzo[d]imidazol-6-yl)pyrimidine-2-yl)morpholine]
6 | 0.1 nM | Cc1nc(N)ncc1-c1cc2nc(-c3ccc(S(=O)(=O)N(C)C)cc3)[nH]c2cc1F [Compound 22, 4-(6-(2-amino-4-methylpyr-imid-5-yl)-5-fluoro-1H-benzo [d]imidazol-2-yl)-N,N-dimeth-yl-benzenesulfonamide]
7 | 0.085 nM | Cc1nc(N)ncc1-c1cc2nc(-c3ccc(S(=O)(=O)N(C)C)cc3)[nH]c2c(F)c1Cl [Compound 31, 4-(6-(2-amino-4-methylpyr-imid-5-yl)-5-chloro-4-fluoro-1H-benzo[d]imidazol-2-yl)-N,N-dimethylbenzenesulfon-amide]
8 | 0.058 nM | CC(C)c1nc(N)ncc1-c1cc2nc(-c3ccc(S(=O)(=O)N(C)C)cc3)[nH]c2cc1F [Compound 34, 4-(6-(2-amino-4-isopropyl-pyrimid-5-yl)-5-fluoro-1H-benzo[d]imidazol-2-yl)-N,N-dimethylbenzenesulfonamide]
9 | 0.11 nM | CN(C)S(=O)(=O)c1ccc(-c2nc3cc(-c4ccncc4Cl)c(F)cc3[nH]2)cc1 [Compound 1, 4-(6-(3-chloropyridin-4-yl)-5-fluoro-1H-benzo[d]imidazol-2-yl)-N,N-dimethylbenzene-sulfonamide]
10 | 0.042 nM | Nc1ncc(-c2cc3[nH]c(-c4ccc(C(F)F)cc4)nc3c(F)c2F)c(C(F)F)n1 [Compound 46, 4-(difluoromethyl)-5-(2-(4-(difluoromethyl)phenyl)-4,5-difluoro-1H-benzo[d]imid-azol-6-yl)pyrimidine-2-amine]
11 | 0.14 nM | Cc1nc(N)ncc1-c1cc2[nH]c(-c3ccc(C(F)(F)F)cc3)nc2cc1F [Compound 42, 5-(5-fluoro-2-(4-(trifluoro-methyl)phenyl)-1H-benzo[d]imidazol-6-yl)-4-methylpyrim-idine-2-amine]
12 | 0.047 nM | Nc1cc(C(F)F)c(-c2cc3[nH]c(-c4ccc(C(F)(F)F)cc4)nc3c(F)c2F)cn1 [Compound 77, 2-(4-(trifluoromethyl)phenyl)-6-(4-(difluoromethyl)-6-amino-pyridin-3-yl)-4,5-difluoro-1H-benzo[d]imidazole]
13 | 0.11 nM | CNc1nc(C)ncc1-c1cc2nc(-c3ccc(C(F)(F)F)cc3)[nH]c2cc1F [Compound 7, 5-(5-fluoro-2-(4-(trifluoro-methyl)phenyl)-1H-benzo[d]imidazol-6-yl)-N,2-dimethyl-pyrimidine-4-amine]
14 | 0.036 nM | CN(C)S(=O)(=O)c1ccc(-c2nc3c(F)c(F)c(-c4cnc(N)cc4Cl)cc3[nH]2)cc1 [Compound 57, 4-(6-(6-amino-4-chloropyri-din-3-yl)-4,5-difluoro-1H-benzo[d]imidazol-2-yl)-N,N-dimethylbenzenesulfonamide]
